Reference: patent publication US6555375B1, “Methods for somatic embryo formation and plant regeneration of Beta vulgaris” (priority 2000, dated 2003)

Columns and labels:
Type in all cases: cell-based, Beta vulgaris
[1] = test system: embryogenic tissue masses of sugar beet; experiment: Repetitive embryogenic culture: optimization of proliferation medium; conditions: for Effect of media on repetitive embryogenic culture (description) / white embryos, share of tissues / white embryos or white clumps, share of tissues: pH 5.7
Description: These embedded tissues were manually isolated, separated and transferred into liquid medium (MS medium+BAP 0.2 mg/L). The cultures were maintained at constant agitation (100 rpm) in the dark with biweekly changes of the medium. […] Clumps of white embryogenic tissue masses were divided and transferred to fresh medium for further proliferation. […] Part of these tissues was used for the optimization of culture medium.
The optimization of proliferation medium was conducted through several stages. Each stage lasted for two weeks.

[2] = test system: sugar beet seedling tissues (hypocotyls, cotyledons); experiment: Callus induction from sugar beet seedling explants on MS medium with cytokinin
Description: Seeds from three sugar beet lines ACH199 (triploid), ACH31 (triploid) and ACH203 (diploid) were obtained from Crystal and Maribo Beet Seed, Moorehead, Minn. USA. To remove seed covers, Beta vulgaris seeds were soaked in the tap water overnight and then washed under water flow. Seeds were sterilized by sequential treatment with 70% (v/v) ethanol (1 min.), 0.1% (w/v) mercuric chloride (10 min.) and 10% (v/v) household laundry bleach (20 min.) followed by four washes with sterile distilled water. Seeds were then dried on sterile filter paper. All steps were performed in a laminar flow hood.
A series of media which included additional supplements were used for callus induction, embryo proliferation and shoot formation. Phytohormones (BAP, TDZ, NAA, IAA, 2,4-D) were added to the media before autoclaving (120° C. for 20 min.). The basal medium for callus induction and embryogenesis is MS medium comprising MS basal salts, 3% sucrose, 100 mg/L myo-inositol, 0.5 mg/L nicotinic acid, 0.5 mg/L pyridoxine-HCl, 1 mg/L thiamine-HCl and 0.8% (w/v) Difco agar. The basal medium for proliferation of repetitive embryos is MSE (MS basal salts, 100 mg/L myo-inositol, 0.5 mg/L nicotinic acid, 0.5 mg/L pyridoxine-HCl, 1 mg/L thiamine-HCl).
Petri dishes (100 mm×25 mm) containing 25 mL of medium were used for all experiments. Seeds were placed on MS medium, containing either BAP 2 mg/L or TDZ 1 mg/L; plates were sealed and placed in the dark place at 21° C. Cotyledons and hypocotyls (FIG. 1A) were excised from two-week-old seedlings, cut into several pieces, incised and placed on callus induction medium (MS medium supplemented with either 2 mg/L of BAP or 1 mg/l of TDZ). Plates were incubated in the dark at 21° C. Four weeks later, when explants were necrotic and dark brown, colonies of white friable callus appeared on the explant surface (FIG. 1B). Most of the callus formed on hypocotyls. Only a few colonies were found on cotyledons.

[3] = test system: friable callus of sugar beet; experiment: Somatic embryogenesis from friable callus; conditions: callus of ACH199 on MS+BAP at 1 mg/L
Description: (§1) For regeneration of embryos, friable callus was transferred to callus regeneration medium (MS medium supplemented with either 1 mg/L of BAP or 1 mg/L of TDZ). The cultures were incubated at 25° C. under a photoperiod of 16 hours of light of cool, white light at an intensity of 30 μmol m^−2s^−1 followed by a 8 hours of darkness. Callus began to grow vigorously, and by the end of the second week, it was possible to distinguish several callus types as well as small embryos (FIG. 1C). Since every seedling was treated as a separate line, quantitative analysis can be applied to the results of the experiments.
After having subcultured callus tissues on regeneration medium, friable callus grew quite fast, expanded vigorously and was almost totally necrotic after a month. At this moment a few white embryogenic structures at different stages of development became visible (FIG. 1D); however, only callus of ACH199 growing on MS+BAP at 1 mg/L produced such structures. The frequency of embryogenesis was very low. Seven separate embryos were found in two out of 40 independent callus lines.

[4] = test system: friable callus of sugar beet; experiment: Shoot/plant regeneration from friable callus
Description: as §1
All explants of one type from the same line (i.e. only hypocotyls) were able to produce callus, if any did. At the same time, there were only a few cases where callus formed from both cotyledons and hypocotyls of the same seedling (twice in ACH31 and four times in ACH203).

[5] = test system: sugar beet somatic embryos; experiment: Germination of primary somatic embryos on MS medium containing cytokinin
Description: The embryos germinated quickly when transferred to fresh medium either supplemented with phytohormones or not. […] These embedded tissues were manually isolated, separated and transferred into liquid medium (MS medium+BAP 0.2 mg/L). The cultures were maintained at constant agitation (100 rpm) in the dark with biweekly changes of the medium. The white embryogenic tissue masses expanded in two weeks and snow-white fresh outgrowths formed on the surface of older tissues (FIG. 2B). Clumps of white embryogenic tissue masses were divided and transferred to fresh medium for further proliferation. A couple of such passages was enough to generate a large number of white clumps. Part of these tissues was used for the optimization of culture medium.

[6] = IV. MSE, sucrose 6%, glycine 2 mg/L, phytohormone 0.1 mg/L
[7] = II. MSE, sucrose 6%, glutamine 2 mg/L, phytohormone 0.1 mg/L
[8] = IV. MSE, sucrose 6%, glycine 2 mg/L, phytohormone 0.05 mg/L
[9] = IV. MSE, sucrose 6%, glycine 2 mg/L, phytohormone 1 mg/L
[10] = III. MSE, sucrose 6%, BAP 0.1 mg/l, amino acid 2 mg/L
[11] = III. MSE, sucrose 6%, BAP 0.1 mg/l, amino acid 200 mg/L
[12] = I. MSE, BAP 0.2 mg/L, glutamine 2 mg/L, carbon source 6%

O=C(O)COc1ccc(Cl)cc1Cl [2,4D, 2,4-dichlorophenoxyacetic acid]
colour of vitrified tissues [1]: caused bleaching of vitrified tissues | Effect of media on repetitive embryogenic culture (description) [1, 6]: Pale yellow tissues with white embryos; red pigmentation is repressed | effect on embryo proliferation ([1]; presence in the medium): negative effect

c1ccc(CNc2ncnc3nc[nH]c23)cc1 [BAP, 6-benzylaminopurine]
%A: number of lines producing callus/total number of lines × 100 ([2]; Cultivar ACH31, Cotyledons): 1% | # of lines produced callus ([2]; Cultivar ACH31, Cotyledons, MS + BAP 2 mg/L or TDZ 1 mg/L): 3 | %A: number of lines producing callus/total number of lines × 100 ([2]; Cultivar ACH31, Hypocotyls, MS + BAP 2 mg/L or TDZ 1 mg/L): 20% | # of lines produced callus ([2]; Cultivar ACH31, Hypocotyls, MS + BAP 2 mg/L or TDZ 1 mg/L, dark 21° C.): 43 | %A: number of lines producing callus/total number of lines × 100 ([2]; Cultivar ACH199, Cotyledons): 2% | # of lines produced callus ([2]; Cultivar ACH199, Cotyledons, MS + BAP 2 mg/L): 4 | %A: number of lines producing callus/total number of lines × 100 ([2]; Cultivar ACH199, Hypocotyls): 15% | # of lines produced callus ([2]; Cultivar ACH199, Hypocotyls, MS + BAP 2 mg/L): 36 | %A: number of lines producing callus/total number of lines × 100 ([2]; Cultivar ACH203, Cotyledons): 5% | # of lines produced callus ([2]; Cultivar ACH203, Cotyledons, MS + BAP 2 mg/L or TDZ 1 mg/L): 11 | %A: number of lines producing callus/total number of lines × 100 ([2]; Cultivar ACH203, Hypocotyls): 18% | # of lines produced callus ([2]; Cultivar ACH203, Hypocotyls, MS + BAP 2 mg/L or TDZ 1 mg/L): 42 | frequency of embryogenesis [3]: very low | independent callus lines in which embryos were found [3]: two out of 40 | separate embryos found ([3]; after a month): Seven | # of lines produced shoots ([4]; Cultivar ACH31, Cotyledons): 0 | %B: number of lines producing callus and regenerating/total number of lines × 100 ([4]; Cultivar ACH31, Cotyledons): 0% | %B: number of lines producing callus and regenerating/total number of lines × 100 ([4]; Cultivar ACH31, Hypocotyls): 1% | # of lines produced shoots ([4]; Cultivar ACH31, Hypocotyls, regeneration medium MS + 1 mg/L BAP or TDZ): 1 | # of lines produced shoots ([4]; Cultivar ACH199, Cotyledons): 1 | %B: number of lines producing callus and regenerating/total number of lines × 100 ([4]; Cultivar ACH199, Cotyledons): 0.5% | # of lines produced shoots ([4]; Cultivar ACH199, Hypocotyls): 1 | %B: number of lines producing callus and regenerating/total number of lines × 100 ([4]; Cultivar ACH199, Hypocotyls): 0.5% | # of lines produced shoots ([4]; Cultivar ACH203, Cotyledons): 2 | %B: number of lines producing callus and regenerating/total number of lines × 100 ([4]; Cultivar ACH203, Cotyledons): 0.9% | # of lines produced shoots ([4]; Cultivar ACH203, Hypocotyls): 11 | %B: number of lines producing callus and regenerating/total number of lines × 100 ([4]; Cultivar ACH203, Hypocotyls): 5% | phenotype of embryos transferred to MS medium containing BAP or TDZ [5]: formed multiple shoots but also retained white embryogenic tissues | Effect of media on repetitive embryogenic culture (description) [1, 7]: Most tissues are red or dark yellow | white embryos, share of tissues [1, 7]: 10% | Effect of media on repetitive embryogenic culture (description) ([1]; IV. MSE, sucrose 6%, glycine 2 mg/L, phytohormone 0.01 mg/L): Necrotic tissue with some white embryos; growth is stunted | Effect of media on repetitive embryogenic culture (description) [1, 8]: Light yellow tissues | white embryos or white clumps, share of tissues [1, 8]: 25% | Effect of media on repetitive embryogenic culture (description) [1, 6]: Light yellow tissues | white embryos or white clumps, share of tissues [1, 6]: 25% | Effect of media on repetitive embryogenic culture (description) [1, 9]: Vigorously growing, vitrified tissues | white embryos, share of tissues [1, 9]: 10%

NC(=O)CC[C@H](N)C(=O)O [Glutamine, glutamine]
colour of vitrified tissues [1]: caused bleaching of vitrified tissues | Effect of media on repetitive embryogenic culture (description) [1, 10]: Slowly growing, dark yellow tissues | Effect of media on repetitive embryogenic culture (description) [1, 11]: Slowly growing, dark yellow tissues

NCC(=O)O [Glycine, glycine]
Effect of media on repetitive embryogenic culture (description) [1, 10]: Tissues are light yellow | white embryos, share of tissues [1, 10]: 30% | Effect of media on repetitive embryogenic culture (description) [1, 11]: Slowly growing, mostly meristematic, vitrified tissues

c1coc(CNc2ncnc3[nH]cnc23)c1 [Kin, kinetin]
Effect of media on repetitive embryogenic culture (description) [1, 7]: Slowly growing, mostly meristematic, vitrified tissues

OC[C@@H](O)[C@@H](O)[C@H](O)[C@H](O)CO [Mannitol, mannitol]
Effect of media on repetitive embryogenic culture (description) [1, 12]: No growth, total necrosis

OC[C@@H](O)[C@@H](O)[C@H](O)[C@@H](O)CO [Sorbitol, sorbitol]
Effect of media on repetitive embryogenic culture (description) [1, 12]: No growth, total necrosis

OC[C@H]1O[C@@](CO)(O[C@H]2O[C@H](CO)[C@@H](O)[C@H](O)[C@H]2O)[C@@H](O)[C@@H]1O [Sucrose, sucrose]
optimization of proliferation medium by modification of sucrose content [1]: did not lead to any further improvement | Effect of media on repetitive embryogenic culture (description) [1, 12]: A lot of repetitive white embryos | Effect of media on repetitive embryogenic culture (description) ([1]; V. MSE, BAP 0.1 mg/L, glycine 2 mg/L, sucrose at 3%): Necrosis of all tissues | Effect of media on repetitive embryogenic culture (description) ([1]; V. MSE, BAP 0.1 mg/L, glycine 2 mg/L, sucrose at 6%): A lot of repetitive white embryos | Effect of media on repetitive embryogenic culture (description) ([1]; V. MSE, BAP 0.1 mg/L, glycine 2 mg/L, sucrose at 8%): Growth is inhibited | Effect of media on repetitive embryogenic culture (description) ([1]; V. MSE, BAP 0.1 mg/L, glycine 2 mg/L, sucrose at 10%): Growth is inhibited | Effect of media on repetitive embryogenic culture (description) ([1]; V. MSE, BAP 0.1 mg/L, glycine 2 mg/L, sucrose at 12%): Growth is inhibited

C/C(=C\CNc1ncnc2[nH]cnc12)CO [Zea, zeatin]
Effect of media on repetitive embryogenic culture (description) [1, 7]: Slowly growing, mostly meristematic, vitrified tissues
